PubChem BioAssay AID1077 (Sanford-Burnham Center for Chemical Genomics, 2009)

Biological target: Tyrosine-protein phosphatase non-receptor type 7 (Homo sapiens) (UniProt P35236)
Experiment: HePTP phosphatase inhibitor potency, dose response, biochemical, fluorescence, secondary assay (AID 1077)
Details: recombinant HePTP phosphatase, fluorogenic substrate

Chain of Tyrosine-protein phosphatase non-receptor type 7 (Homo sapiens) (P35236 whole entry, looked up): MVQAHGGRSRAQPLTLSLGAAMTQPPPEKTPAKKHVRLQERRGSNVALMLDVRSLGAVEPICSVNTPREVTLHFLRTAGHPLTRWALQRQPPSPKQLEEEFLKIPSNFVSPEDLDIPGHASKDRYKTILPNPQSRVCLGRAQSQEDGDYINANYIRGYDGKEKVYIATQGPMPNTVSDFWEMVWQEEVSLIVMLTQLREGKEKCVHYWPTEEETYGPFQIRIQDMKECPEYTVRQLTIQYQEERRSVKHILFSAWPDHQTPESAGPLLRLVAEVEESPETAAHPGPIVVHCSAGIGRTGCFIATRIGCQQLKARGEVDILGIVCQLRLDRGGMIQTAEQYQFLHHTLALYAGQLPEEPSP

An IC50 of 15 µM was found for CCOc1ccc2nc(NC(=O)CSC3=Nc4sc(C)c(C)c4C(=O)C3)sc2c1 in this work.
